From PubChem BioAssay AID330 (DTP/NCI, 2004)
Several values for one entry are separate records, joined by “and”; a condition that tells them apart may be missing. Equal values may be shown once. Inconclusive results and toxic doses are left out. How the source made its calls: active means survival T/C of 150% or more; inactive means T/C below 125% in these data.

System: P388 leukemia ip, CD2F1 mice, survival T/C
Assay: NCI In Vivo Anticancer Drug Screen. Data for tumor model P388 Leukemia (intraperitoneal) in CD2F1 (CDF1) mice
Conditions: endpoint: median survival time, higher = longer survival
Summary of the method: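 Mice carrying the transplanted tumor received test compound or vehicle. Survival was recorded in each group, and the value is the treated-group measurement divided by that of the vehicle-treated control group.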

[1] = dose: 15.0 mg/kg/injection, schedule: Q01DX005 (ip), vehicle: Klucel (hydroxypropylcellulose) (HPC)
[2] = dose: 30.0 mg/kg/injection, schedule: Q01DX005 (ip), vehicle: Klucel (hydroxypropylcellulose) (HPC)
[3] = dose: 60.0 mg/kg/injection, schedule: Q01DX005 (ip), vehicle: Klucel (hydroxypropylcellulose) (HPC)
[4] = dose: 100.0 mg/kg/injection, schedule: Q04DX003 (ip), vehicle: Klucel (hydroxypropylcellulose) (HPC)
[5] = dose: 200.0 mg/kg/injection, schedule: Q04DX003 (ip), vehicle: Klucel (hydroxypropylcellulose) (HPC)
[6] = dose: 100.0 mg/kg/injection, schedule: Q04DX003 (ip), vehicle: saline
[7] = dose: 200.0 mg/kg/injection, schedule: Q04DX003 (ip), vehicle: saline
[8] = dose: 400.0 mg/kg/injection, schedule: Q04DX003 (ip), vehicle: saline
[9] = dose: 50.0 mg/kg/injection, schedule: Q01DX005 (ip), vehicle: saline with Tween-80
[10] = dose: 100.0 mg/kg/injection, schedule: Q01DX005 (ip), vehicle: saline with Tween-80
[11] = dose: 200.0 mg/kg/injection, schedule: Q01DX005 (ip), vehicle: saline with Tween-80
[12] = dose: 120.0 mg/kg/injection, schedule: Q01DX005 (ip), vehicle: Klucel (hydroxypropylcellulose) (HPC)
[13] = dose: 50.0 mg/kg/injection, schedule: Q01DX005 (ip), vehicle: Klucel (hydroxypropylcellulose) (HPC)
[14] = dose: 100.0 mg/kg/injection, schedule: Q01DX005 (ip), vehicle: Klucel (hydroxypropylcellulose) (HPC)
[15] = dose: 200.0 mg/kg/injection, schedule: Q01DX005 (ip), vehicle: Klucel (hydroxypropylcellulose) (HPC)
[16] = dose: 50.0 mg/kg/injection, schedule: Q01DX009 (ip), vehicle: saline
[17] = dose: 100.0 mg/kg/injection, schedule: Q01DX009 (ip), vehicle: saline
[18] = dose: 200.0 mg/kg/injection, schedule: Q01DX009 (ip), vehicle: saline

Measured: T/C

C/C(=N/NC(N)=S)c1cn[nH]c1C
inactive: [1] 102 % of control | [2] 102 % of control | [3] 114 % of control

O=c1oc2c3c4c(cc2c2c1CCC2)CCCN4CCC3
inactive: [4] 102 % of control | [5] 101 % of control | dose: 400.0 mg/kg/injection, schedule: Q04DX003 (ip), vehicle: Klucel (hydroxypropylcellulose) (HPC) 100 % of control

CC1(C)CC(=O)OC/C=C\CC(Cc2ccccc2)C(=O)C1 (configuration not stated)
inactive: [6] 104 % of control | [7] 97 % of control | [8] 96 % of control

NCC(c1ccccc1)C1CCCCC1 (configuration not stated)
inactive: dose: 12.5 mg/kg/injection, schedule: Q01DX005 (ip), vehicle: saline 103 % of control | dose: 25.0 mg/kg/injection, schedule: Q01DX005 (ip), vehicle: saline 94 % of control | dose: 50.0 mg/kg/injection, schedule: Q01DX005 (ip), vehicle: saline 100 % of control and 95 % of control

Cc1ccc(S(=O)(=O)N/N=C2/C(=O)NC(=O)C(=O)C2c2nc3ccccc3s2)cc1 (configuration not stated)
inactive: dose: 60.0 mg/kg/injection, schedule: Q01DX005 (ip), vehicle: saline with Tween-80 98 % of control | dose: 120.0 mg/kg/injection, schedule: Q01DX005 (ip), vehicle: saline with Tween-80 92 % of control | dose: 240.0 mg/kg/injection, schedule: Q01DX005 (ip), vehicle: saline with Tween-80 100 % of control

C=CN=NNc1ccc(OC)cc1
inactive: dose: 100.0 mg/kg/injection, schedule: Q04DX003 (ip), vehicle: saline + Tween-80 + alcohol 116 % of control | dose: 200.0 mg/kg/injection, schedule: Q04DX003 (ip), vehicle: saline + Tween-80 + alcohol 106 % of control

Clc1cc2c(c(CSC3=NCN(CC4CC4)CN3)c1)OCOC2
inactive: [1] 99 % of control | [2] 100 % of control | [3] 98 % of control and 101 % of control

CC1CC(C)/C(=N/NC(N)=O)C(C(O)CC2CCC(=O)NC2=O)C1 (configuration not stated)
inactive: [9] 100 % of control | [10] 115 % of control | [11] 115 % of control

COc1cc(Br)c(C2SCC(=O)N2c2nncs2)cc1OC (configuration not stated)
inactive: [3] 121 % of control | [12] 106 % of control | dose: 240.0 mg/kg/injection, schedule: Q01DX005 (ip), vehicle: Klucel (hydroxypropylcellulose) (HPC) 100 % of control

Cc1cc2nc3c(nc2cc1C)CCCCCC3
inactive: dose: 85.5 mg/kg/injection, schedule: Q01DX001 (ip), vehicle: Klucel (hydroxypropylcellulose) (HPC) 92 % of control | dose: 171.0 mg/kg/injection, schedule: Q01DX001 (ip), vehicle: Klucel (hydroxypropylcellulose) (HPC) 90 % of control | dose: 342.0 mg/kg/injection, schedule: Q01DX001 (ip), vehicle: Klucel (hydroxypropylcellulose) (HPC) 90 % of control

C=C1CCC2C(C)(CO)C(O)CCC2(C)C1C/C=C1\C(=O)OCC1O (configuration not stated)
inactive: dose: 25.0 mg/kg/injection, schedule: Q01DX005 (ip), vehicle: Klucel (hydroxypropylcellulose) (HPC) 109 % of control | [13] 108 % of control | [14] 114 % of control | [15] 117 % of control

CC1(C)CC(=O)C(CC2=C(N)CC(C)(C)CC2=O)=C(N)C1
inactive: dose: 25.0 mg/kg/injection, schedule: Q04DX003 (ip), vehicle: Klucel (hydroxypropylcellulose) (HPC) 95 % of control | dose: 50.0 mg/kg/injection, schedule: Q04DX003 (ip), vehicle: Klucel (hydroxypropylcellulose) (HPC) 101 % of control | [4] 94 % of control | [5] 95 % of control

CC1N=C(SCc2c(F)cccc2Cl)N2C(C)N=C(SCc3c(F)cccc3Cl)N12 (configuration not stated)
inactive: [9] 96 % of control | [10] 96 % of control | [11] 93 % of control

O=c1[nH]c(=O)c2[nH]c(N=Nc3ccc(S(=O)(=O)O)cc3)nc2[nH]1
inactive: [13] 95 % of control | [14] 99 % of control | [15] 100 % of control

O=[N+]([O-])c1cccnc1Sc1nc2ccccc2[nH]1
inactive: [16] 96 % of control | [17] 101 % of control | [18] 101 % of control

O=C(CC1=NC2NN(c3ccccc3)C(=O)C2=C1CC(=O)c1ccccc1)c1ccccc1 (configuration not stated)
inactive: dose: 60.0 mg/kg/injection, schedule: Q01DX005 (ip), vehicle: saline 100 % of control | dose: 120.0 mg/kg/injection, schedule: Q01DX005 (ip), vehicle: saline 107 % of control | dose: 240.0 mg/kg/injection, schedule: Q01DX005 (ip), vehicle: saline 110 % of control

CN1CC2(c3ccccc3)CN(C)CC(c3ccccc3)(C1)C2=O
inactive: dose: 6.25 mg/kg/injection, schedule: Q01DX009 (ip), vehicle: saline with Tween-80 100 % of control | dose: 12.5 mg/kg/injection, schedule: Q01DX009 (ip), vehicle: saline with Tween-80 86 % of control

CCC[CH2][Sn]([CH2]CCC)([CH2]CCC)[S]C12CC3CC(CC(C3)C1)C2
inactive: [6] 112 % of control | [7] 102 % of control | [8] 106 % of control

CCSC(=N)N=Nc1ccc(O)cc1
inactive: dose: 25.0 mg/kg/injection, schedule: Q01DX009 (ip), vehicle: saline with Tween-80 100 % of control | dose: 50.0 mg/kg/injection, schedule: Q01DX009 (ip), vehicle: saline with Tween-80 99 % of control | dose: 100.0 mg/kg/injection, schedule: Q01DX009 (ip), vehicle: saline with Tween-80 99 % of control | dose: 200.0 mg/kg/injection, schedule: Q01DX009 (ip), vehicle: saline with Tween-80 93 % of control

Cc1cc(C)n(-c2ccc(Cl)nn2)n1
inactive: [16] 99 % of control | [17] 95 % of control | [18] 100 % of control

COc1ccc(C(C)c2cc(N=O)c(OC)cc2O)cc1 (configuration not stated)
inactive: dose: 12.5 mg/kg/injection, schedule: Q01DX005 (ip), vehicle: saline with Tween-80 91 % of control | dose: 25.0 mg/kg/injection, schedule: Q01DX005 (ip), vehicle: saline with Tween-80 94 % of control | [9] 92 % of control and 96 % of control

CN1CCN(C)C(=O)C1=O
inactive: dose: 12.5 mg/kg/injection, schedule: Q04DX003 (ip), vehicle: suspension in saline 108 % of control | dose: 25.0 mg/kg/injection, schedule: Q04DX003 (ip), vehicle: suspension in saline 115 % of control | dose: 50.0 mg/kg/injection, schedule: Q04DX003 (ip), vehicle: suspension in saline 110 % of control

Cc1ccc2[nH]cc(C3CCCN4CCCCC34)c2c1 (configuration not stated)
inactive: dose: 12.5 mg/kg/injection, schedule: Q01DX001 (ip), vehicle: saline with Tween-80 99 % of control | dose: 25.0 mg/kg/injection, schedule: Q01DX001 (ip), vehicle: saline with Tween-80 100 % of control | dose: 50.0 mg/kg/injection, schedule: Q01DX001 (ip), vehicle: saline with Tween-80 98 % of control | dose: 90.0 mg/kg/injection, schedule: Q01DX001 (ip), vehicle: saline with Tween-80 92 % of control

COC(=O)NC(NC(=O)OC)C(F)(F)C(NC(=O)OC)NC(=O)OC
inactive: [3] 96 % of control | [12] 95 % of control

ClCSc1ccccc1C1=NCCCN1
inactive: dose: 0.78 mg/kg/injection, schedule: Q01DX005 (ip), vehicle: saline 107 % of control | dose: 1.56 mg/kg/injection, schedule: Q01DX005 (ip), vehicle: saline 107 % of control | dose: 3.12 mg/kg/injection, schedule: Q01DX005 (ip), vehicle: saline 102 % of control

Cc1ccc(C)c2c1C(=O)c1c(C)ccc(C)c1C2=O
inactive: dose: 1.5 mg/kg/injection, schedule: Q01DX005 (ip), vehicle: Klucel (hydroxypropylcellulose) (HPC) 99 % of control | dose: 3.0 mg/kg/injection, schedule: Q01DX005 (ip), vehicle: Klucel (hydroxypropylcellulose) (HPC) 94 % of control | dose: 6.0 mg/kg/injection, schedule: Q01DX005 (ip), vehicle: Klucel (hydroxypropylcellulose) (HPC) 89 % of control | [13] 90 % of control | [14] 87 % of control | [15] 86 % of control
